Laboratory results: US11339165B2, “Pyrazolopyrimidines having activity against the respiratory syncytial virus (RSV)” (priority 2017, dated 2022)

What was measured:
[1] = system: rgRSV224 virus; assay: Antiviral activity: rgRSV224 (GFP) replication in HeLa cells; assay type: cell-based, respiratory syncytial virus (RSV); details: human respiratory syncytial virus, HeLa, 72 h, read-out: RSV HELA EC50 (μM), rgRSV224 virus (MOI=1), HeLa cells, GFP expression three days post-virus exposure
[2] = in vitro; details: human, TOX HELA CC50 (μM)
Protocol: Black 384-well clear-bottom microtiter plates (Corning, Amsterdam, The Netherlands) were filled via acoustic drop ejection using the echo liquid handler (Labcyte, Sunnyvale, Calif.). 200 nL of compound stock solutions (100% DMSO) were transferred to the assay plates. 9 serial 4-fold dilutions of compound were made, creating per quadrant the same compound concentration. The assay was initiated by adding 10 μL of culture medium to each well (RPMI medium without phenol red, 10% FBS-heat inactivated, 0.04% gentamycin (50 mg/mL). All addition steps are done by using a multidrop dispenser (Thermo Scientific, Erembodegem, Belgium). Next, rgRSV224 virus (MOI=1) diluted in culture medium was added to the plates. rgRSV224 virus is an engineered virus that includes an additional GFP gene (Hallak L K, Spillmann D, Collins P L, Peeples M E. Glycosaminoglycan sulfation requirements for respiratory syncytial virus infection; Journal of virology (2000), 74(22), 10508-13) and was in-licensed from the NIH (Bethesda, Md., USA). Finally, 20 μL of a HeLa cell suspension (3,000 cells/well) were plated. Medium, virus- and mock-infected controls were included in each test. The wells contain 0.05% DMSO per volume. Cells were incubated at 37° C. in a 5% CO2 atmosphere. Three days post-virus exposure, viral replication was quantified by measuring GFP expression in the cells by an in house developed MSM laser microscope (Tibotec, Beerse, Belgium). The EC50 was defined as the 50% inhibitory concentration for GFP expression. In parallel, compounds were incubated for three days in a set of white 384-well microtiter plates (Corning) and the cytotoxicity of compounds in HeLa cells was determined by measuring the ATP content of the cells using the ATPlite kit (Perkin Elmer, Zaventem, Belgium) according to the manufacturer's instructions. The CC50 was defined as the 50% concentration for cytotoxicity.

| SMILES | EC50 [1] [µM] | CC50 at 3 days [2] [µM] |
| --- | --- | --- |
| C[C@@H]1c2ccccc2CCN1C(=O)c1cc(C2CC2)n2nc(-c3c(F)cc(N4CC[C@H](C(N)=O)C4)cc3OCCO)cc2n1 [Compound 106, (S)-1-(4-(7-cyclopropyl-5-((R)-1-methyl-1,2,3,4-tetrahydroisoquinoline-2-carbonyl)pyrazolo[1,5-a]pyrimidin-2-yl)-3-fluoro-5-(2-hydroxyethoxy)phenyl)pyrrolidine-3-carboxamide] | 0.089 | 21 |
| CC(=O)N[C@H]1CCN(c2ccc(-c3cc4nc(C(=O)N5CCc6ccccc6[C@H]5C)cc(C5CC5)n4n3)c(F)c2)C1 [Compound 8, N-[(3S)-1-(4-{7-Cyclopropyl-5-[(1R)-1-methyl-1,2,3,4-tetrahydroisoquinoline-2-carbonyl]pyrazolo[1,5-a]pyrimidin-2-yl}-3-fluorophenyl)pyrrolidin-3-yl]acetamide] | 0.041 | 51.5 |
| C[C@@H]1c2ccccc2CCN1C(=O)c1cc(C2CC2)n2nc(-c3ccc(N4C[C@H](O)[C@H](O)[C@H]4CO)cc3F)cc2n1 [Compound 98] | 0.039 | 47.6 |
| C[C@@H]1c2ccccc2CCN1C(=O)c1cc(C2CC2)n2nc(-c3ccc(N4CC[C@](C)(CC(N)=O)C4)cc3F)cc2n1 (single isomer, unassigned) [Compound 23, 2-[(3*R)-1-(4-{7-Cyclopropyl-5-[(1R)-1-methyl-1,2,3,4-tetrahydroisoquinoline-2-carbonyl]pyrazolo[1,5-a]pyrimidin-2-yl}-3-fluorophenyl)-3-methylpyrrolidin-3-yl]acetamide] | 0.032 | 30.3 |
| C[C@@H]1c2ccccc2CCN1C(=O)c1cc(C2CC2)n2nc(-c3ccc(N4CC[C@H](c5noc(=O)[nH]5)C4)cc3F)cc2n1 [Compound 4, 3-[(3S)-1-(4-{7-Cyclopropyl-5-[(1R)-1-methyl-1,2,3,4-tetrahydroisoquinoline-2-carbonyl]pyrazolo[1,5-a]pyrimidin-2-yl}-3-fluorophenyl)pyrrolidin-3-yl]-4,5-dihydro-1,2,4-oxadiazol-5-one] | 0.049 | 23 |
| C[C@@H]1c2ccccc2CCN1C(=O)c1cc(C2CC2)n2nc(-c3ccc(N4CC[C@H](NCC(F)(F)F)C4)cc3F)cc2n1 [Compound 94, (7-cyclopropyl-2-(2-fluoro-4-((S)-3-((2,2,2-trifluoroethyl)amino)pyrrolidin-1-yl)phenyl)pyrazolo[1,5-a]pyrimidin-5-yl)((R)-1-methyl-3,4-dihydroisoquinolin-2(1H)-yl)methanone] | 0.19 | > 100 |
| C[C@@H]1c2ccccc2CCN1C(=O)c1cc(C2CC2)n2nc(-c3ccc(N4CC[C@H](C(=O)N(C)C)C4)cc3F)cc2n1 [Compound 38, (3S)-1-(4-{7-Cyclopropyl-5-[(1R)-1-methyl-1,2,3,4-tetrahydroisoquinoline-2-carbonyl]-pyrazolo[1,5-a]pyrimidin-2-yl}-3-fluorophenyl)-N,N-dimethylpyrrolidine-3-carboxamide] | 0.043 | > 100 |
| CNS(=O)(=O)C1CCN(c2ccc(-c3cc4nc(C(=O)N5CCc6ccccc6[C@H]5C)cc(C5CC5)n4n3)c(F)c2)C1 (stereo partly drawn) [Compound 21, 1-(4-{7-Cyclopropyl-5-[(1R)-1-methyl-1,2,3,4-tetrahydroisoquinoline-2-carbonyl]-pyrazolo[1,5-a]pyrimidin-2-yl}-3-fluorophenyl)-N-methylpyrrolidine-3-sulfonamide] | 0.045 | > 100 |
| CNC(=O)C1CCCN(c2ccc(-c3cc4nc(C(=O)N5CCc6ccccc6[C@H]5C)cc(C5CC5)n4n3)c(F)c2)C1 (stereo partly drawn) [Compound 73, 1-(4-{7-Cyclopropyl-5-[(1R)-1-methyl-1,2,3,4-tetrahydroisoquinoline-2-carbonyl]-pyrazolo[1,5-a]pyrimidin-2-yl}-3-fluorophenyl)-N-methylpiperidine-3-carboxamide] | 0.101 | > 100 |
| C[C@@H]1c2ccccc2CCN1C(=O)c1cc(C2CC2)n2nc(-c3ccc(N4CCCC(CC(N)=O)C4)cc3F)cc2n1 (stereo partly drawn) [Compound 71, 2-[1-(4-{7-Cyclopropyl-5-[(1R)-1-methyl-1,2,3,4-tetrahydroisoquinoline-2-carbonyl]-pyrazolo[1,5-a]pyrimidin-2-yl}-3-fluorophenyl)piperidin-3-yl]acetamide] | 0.105 | 29.8 |
| COc1cc(N2CC[C@H](C(N)=O)C2)nc(F)c1-c1cc2nc(C(=O)N3CCc4ccccc4[C@H]3C)cc(C3CC3)n2n1 [Compound 86, (3S)-1-(5-{7-Cyclopropyl-5-[(1R)-1-methyl-1,2,3,4-tetrahydroisoquinoline-2-carbonyl]-pyrazolo[1,5-a]pyrimidin-2-yl}-6-fluoro-4-methoxypyridin-2-yl)pyrrolidine-3-carboxamide] | 0.161 | 49.5 |
| C[C@@H]1c2ccsc2CCN1C(=O)c1cc(C2CC2)n2nc(-c3ccc(N4CC[C@H](C(=O)NS(C)(=O)=O)C4)cc3F)cc2n1 (single isomer, unassigned) [Compound 41, (3S)-1-(4-{7-Cyclopropyl-5-[(4*R)-4-methyl-4,5,6,7-tetrahydro-thieno[3,2-c]pyridine-5-carbonyl]pyrazolo[1,5-a]pyrimidin-2-yl}-3-fluorophenyl)-N-methanesulfonylpyrrolidine-3-carboxamide] | 0.036 | 51.1 |
| C[C@@H]1c2ccsc2CCN1C(=O)c1cc(C2CC2)n2nc(-c3ccc(N4CC[C@@](C)(C(N)=O)C4)cc3F)cc2n1 (single isomer, unassigned) [Compound 44, (3*R)-1-(4-{7-Cyclopropyl-5-[(4*R)-4-methyl-4,5,6,7-tetrahydro-thieno[3,2-c]pyridine-5-carbonyl]pyrazolo[1,5-a]pyrimidin-2-yl}-3-fluorophenyl)-3-methylpyrrolidine-3-carboxamide] | 0.019 | 45.2 |
| C[C@@H]1c2ccccc2CCN1C(=O)c1cc(C2CC2)n2nc(-c3ccc(N4C[C@@H](O)[C@@H](O)C4)cc3F)cc2n1 [Compound 95, (7-cyclopropyl-2-(4-((3R,4S)-3,4-dihydroxypyrrolidin-1-yl)-2-fluorophenyl)pyrazolo[1,5-a]pyrimidin-5-yl)((R)-1-methyl-3,4-dihydroisoquinolin-2(1H)-yl)methanone] | 0.018 | 31.1 |
| C[C@@H]1c2ccccc2CCN1C(=O)c1cc(C2CC2)n2nc(-c3ccc(N4C[C@H](O)C(F)(F)C4)cc3F)cc2n1 [Compound 97, (7-cyclopropyl-2-(4-((S)-3,3-difluoro-4-hydroxypyrrolidin-1-yl)-2-fluorophenyl)pyrazolo[1,5-a]pyrimidin-5-yl)((R)-1-methyl-3,4-dihydroisoquinolin-2(1H)-yl)methanone] | 0.053 | 26.1 |
| C[C@@H]1c2ccccc2CCN1C(=O)c1cc(C2CC2)n2nc(-c3ccc(N4CCC(S(=O)(=O)N(C)C)C4)cc3F)cc2n1 (stereo partly drawn) [Compound 22, 1-(4-{7-Cyclopropyl-5-[(1R)-1-methyl-1,2,3,4-tetrahydroisoquinoline-2-carbonyl]-pyrazolo[1,5-a]pyrimidin-2-yl}-3-fluorophenyl)-N,N-dimethylpyrrolidine-3-sulfonamide] | 0.145 | > 100 |
